Measured values published in patent publication US6818203B2, “Use of perfluoroalkyl-containing metal complexes as contrast media in MR-imaging for visualization of plaque, tumors and necroses” (Schering Aktiengesellschaft, priority 2000, dated 2004).

Experiments:
[1] = critical micelle formation concentration (CMC) by tensiometry; assay type: physicochemical
Outline: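 Surface tension of aqueous solutions was measured by tensiometry across a range of compound concentrations. CMC (mol/l) was calculated from the resulting surface-tension-versus-concentration plot.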

[2] = hydrodynamic micelle diameter (2 Rh) by photon correlation spectroscopy (PCS); assay type: physicochemical
Outline: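 Aggregate size measured as hydrodynamic diameter (2 Rh) of the amphiphilic compounds in solution by photon correlation spectroscopy.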

[3] = system: myocardial infarction; experiment: infarction visualization (MRT) after intravenous administration in rats with acutely induced myocardial infarction; assay type: in vivo
From the text: The successful induction of an acute myocardial infarction was confirmed by means of NBT-staining.

[4] = system: iliac lymph nodes; experiment: lymph node visualization (MRT) after intravenous administration in VX2-tumor-bearing rabbits; assay type: in vivo; conditions: 200 μmol of Gd/kg i.v.; for signal in zones within the lymph node diagnosed as metastases (confirmed histologically): early images
[5] = system: primary tumor (VX2-tumor implanted i.m.); experiment: tumor visualization (MRT) after intravenous administration in VX2-tumor-bearing rabbits; assay type: in vivo; conditions: 200 μmol of Gd/kg i.v.; for enhancement of the primary tumor (especially the periphery): 15 minutes p.i.
Protocol: The pictures of FIG. 6 show MR images of an iliac lymph node and of a primary tumor (VX2-tumor implanted i.m.) precontrast, 60 minutes and 20 hours after intravenous administration of 100 μmol of Gd/kg of body weight of metal complex I in rabbits. […]

[6] = organ distribution (including lymph node concentration) after intravenous administration in rats; assay type: in vivo; conditions: 24 hours after administration
Protocol: (§1) After intravenous administration of 100 μmol of total gadolinium/kg of body weight of a polar Gd-chelate with perfluorinated side chains (metal complex X) in rats, the metal content in various organs as well as in the lymph nodes (pooled as mesenteric and peripheral lymph nodes) was determined 24 hours after administration (MW, n=2).
as §1, with “200” for “100”, “V)” for “X)”
as §1, with “200” for “100”, “III)” for “X)”

[7] = Mesenteric lymph nodes, 100 μmol Gd/kg i.v.
[8] = Peripheral lymph nodes, 100 μmol Gd/kg i.v.
[9] = Mesenteric lymph nodes, 200 μmol Gd/kg i.v.
[10] = Peripheral lymph nodes, 200 μmol Gd/kg i.v.

COCCN(CCOCCC(F)(F)C(F)(F)C(F)(F)C(F)(F)C(F)(F)C(F)(F)C(F)(F)C(F)(F)F)C(=O)CNC(=O)C(C)N1CCN(CC(=O)[O-])CCN(CC(=O)[O-])CCN(CC(=O)[O-])CC1.[Gd+3] (centres unmarked) [metal complex X]
CMC (critical micelle formation concentration) [1]: 7.9e-06 mol/L
2 Rh (hydrodynamic micelle diameter) [2]: 5.4 nm
signal in the infarction area (T1-weighted spin-echo images) ([3]; 6 hours after i.v. 100 μmol of Gd/kg): strong signal rise
signal in healthy lymph node tissue (T1-weighted gradient-echo images) [4]: strong signal rise
enhancement in the healthy lymph node tissue ([4]; 15 minutes p.i.): 382%
ratio of signal intensities of healthy lymph node tissue to metastasis ([4]; 15 minutes p.i.): 3.0
enhancement in the healthy lymph node tissue ([4]; 60 minutes p.i.): 419%
ratio of signal intensities of healthy lymph node tissue to metastasis ([4]; 60 minutes p.i.): 3.4
signal in zones within the lymph node diagnosed as metastases (confirmed histologically) [4]: without signal rise
enhancement of the primary tumor (especially the periphery) [5]: 277%
enhancement of the primary tumor (center of the tumor) ([5]; 24 hours p.i.): 217%
metal content ([6]; Blood, 100 μmol Gd/kg i.v.): 1 μmol Gd/L
metal content, % Dose ([6]; Blood, 100 μmol Gd/kg i.v.): 0.01 % Dose
metal content ([6]; Brain, 100 μmol Gd/kg i.v.): 1 μmol Gd/L
metal content, % Dose ([6]; Brain, 100 μmol Gd/kg i.v.): 0.01 % Dose
metal content ([6]; Carcass, 100 μmol Gd/kg i.v.): 192 μmol Gd/L
metal content, % Dose ([6]; Carcass, 100 μmol Gd/kg i.v.): 34.01 % Dose
metal content ([6]; Femur, 100 μmol Gd/kg i.v.): 3 μmol Gd/L
metal content, % Dose ([6]; Femur, 100 μmol Gd/kg i.v.): 0.01 % Dose
metal content ([6]; Heart, 100 μmol Gd/kg i.v.): 3 μmol Gd/L
metal content, % Dose ([6]; Heart, 100 μmol Gd/kg i.v.): 0.01 % Dose
metal content ([6]; Intestine, 100 μmol Gd/kg i.v.): 65 μmol Gd/L
metal content, % Dose ([6]; Intestine, 100 μmol Gd/kg i.v.): 1.22 % Dose
metal content ([6]; Kidneys, 100 μmol Gd/kg i.v.): 150 μmol Gd/L
metal content, % Dose ([6]; Kidneys, 100 μmol Gd/kg i.v.): 0.65 % Dose
metal content ([6]; Liver, 100 μmol Gd/kg i.v.): 104 μmol Gd/L
metal content, % Dose ([6]; Liver, 100 μmol Gd/kg i.v.): 2.34 % Dose
metal content ([6]; Lung, 100 μmol Gd/kg i.v.): 18 μmol Gd/L
metal content, % Dose ([6]; Lung, 100 μmol Gd/kg i.v.): 0.05 % Dose
metal content [6, 7]: 19 μmol Gd/L
metal content, % Dose [6, 7]: 0.01 % Dose
metal content ([6]; Muscle, 100 μmol Gd/kg i.v.): 1 μmol Gd/L
metal content, % Dose ([6]; Muscle, 100 μmol Gd/kg i.v.): 0.00 % Dose
metal content ([6]; Pancreas, 100 μmol Gd/kg i.v.): 6 μmol Gd/L
metal content, % Dose ([6]; Pancreas, 100 μmol Gd/kg i.v.): 0.02 % Dose
metal content [6, 8]: 11 μmol Gd/L
metal content, % Dose [6, 8]: 0.01 % Dose
metal content ([6]; Spleen, 100 μmol Gd/kg i.v.): 54 μmol Gd/L
metal content, % Dose ([6]; Spleen, 100 μmol Gd/kg i.v.): 0.07 % Dose
metal content ([6]; Stomach, 100 μmol Gd/kg i.v.): 49 μmol Gd/L
metal content, % Dose ([6]; Stomach, 100 μmol Gd/kg i.v.): 0.18 % Dose
metal content, % Dose ([6]; Total, 100 μmol Gd/kg i.v.): 38.58 % Dose

O=C([O-])CN1CCN(CC(=O)[O-])CCN(CC(O)CNC(=O)CCCC(=O)N2CCN(C(F)(F)C(F)(F)C(F)(F)C(F)(F)C(F)(F)C(F)(F)C(F)(F)C(F)(F)F)CC2)CCN(CC(=O)[O-])CC1.[Gd+3] (centres unmarked) [metal complex III]
CMC (critical micelle formation concentration) [1]: 7.06e-06 mol/L
2 Rh (hydrodynamic micelle diameter) [2]: 3.2 nm
signal in the infarction area (T1-weighted spin-echo images) ([3]; 22 hours after i.v. 100 μmol of Gd/kg): strong signal rise
signal in healthy lymph node tissue (T1-weighted gradient-echo images) [4]: strong signal rise
enhancement in the healthy lymph node tissue ([4]; 15 minutes p.i.): 195%
ratio of signal intensities of healthy lymph node tissue to metastasis ([4]; 15 minutes p.i.): 1.9
enhancement in the healthy lymph node tissue ([4]; 60 minutes p.i.): 233%
ratio of signal intensities of healthy lymph node tissue to metastasis ([4]; 60 minutes p.i.): 1.8
signal in zones within the lymph node diagnosed as metastases (confirmed histologically) [4]: without signal rise
enhancement of the primary tumor (especially the periphery) [5]: 232%
metal content ([6]; Blood, 200 μmol Gd/kg i.v.): 83 μmol Gd/L
metal content, % Dose ([6]; Blood, 200 μmol Gd/kg i.v.): 1.15 % Dose
metal content ([6]; Brain, 200 μmol Gd/kg i.v.): 10 μmol Gd/L
metal content, % Dose ([6]; Brain, 200 μmol Gd/kg i.v.): 0.05 % Dose
metal content ([6]; Carcass, 200 μmol Gd/kg i.v.): 242 μmol Gd/L
metal content, % Dose ([6]; Carcass, 200 μmol Gd/kg i.v.): 36.30 % Dose
metal content ([6]; Femur, 200 μmol Gd/kg i.v.): 76 μmol Gd/L
metal content, % Dose ([6]; Femur, 200 μmol Gd/kg i.v.): 0.32 % Dose
metal content ([6]; Heart, 200 μmol Gd/kg i.v.): 82 μmol Gd/L
metal content, % Dose ([6]; Heart, 200 μmol Gd/kg i.v.): 0.13 % Dose
metal content ([6]; Intestine, 200 μmol Gd/kg i.v.): 230 μmol Gd/L
metal content, % Dose ([6]; Intestine, 200 μmol Gd/kg i.v.): 3.56 % Dose
metal content ([6]; Kidneys, 200 μmol Gd/kg i.v.): 489 μmol Gd/L
metal content, % Dose ([6]; Kidneys, 200 μmol Gd/kg i.v.): 1.97 % Dose
metal content ([6]; Liver, 200 μmol Gd/kg i.v.): 1222 μmol Gd/L
metal content, % Dose ([6]; Liver, 200 μmol Gd/kg i.v.): 26.28 % Dose
metal content ([6]; Lung, 200 μmol Gd/kg i.v.): 338 μmol Gd/L
metal content, % Dose ([6]; Lung, 200 μmol Gd/kg i.v.): 0.96 % Dose
metal content [6, 9]: 455 μmol Gd/L
metal content, % Dose [6, 9]: 0.33 % Dose
metal content ([6]; Muscle, 200 μmol Gd/kg i.v.): 28 μmol Gd/L
metal content, % Dose ([6]; Muscle, 200 μmol Gd/kg i.v.): 0.04 % Dose
metal content ([6]; Pancreas, 200 μmol Gd/kg i.v.): 203 μmol Gd/L
metal content, % Dose ([6]; Pancreas, 200 μmol Gd/kg i.v.): 0.48 % Dose
metal content [6, 10]: 279 μmol Gd/L
metal content, % Dose [6, 10]: 0.18 % Dose
metal content ([6]; Spleen, 200 μmol Gd/kg i.v.): 464 μmol Gd/L
metal content, % Dose ([6]; Spleen, 200 μmol Gd/kg i.v.): 0.89 % Dose
metal content ([6]; Stomach, 200 μmol Gd/kg i.v.): 165 μmol Gd/L
metal content, % Dose ([6]; Stomach, 200 μmol Gd/kg i.v.): 0.57 % Dose
metal content, % Dose ([6]; Total, 200 μmol Gd/kg i.v.): 73.20 % Dose
